Assay results reported in US12396459B2, “Synergistically effective herbicide composition comprising pyridate and at least one defined 4-HPPD inhibitor” (BELCHIM CROP PROTECTION NV, priority 2018, dated 2025).

What was measured:
Type in all cases: in vivo
[1] = system: Abutilon theophrasti; assay: Field trial post-emergence in maize: ABUTH; conditions: 31-48 DAA; # = 2; g a.c./ha: PYR 300, MES 100, PYR + MES 300 + 90
Experimental: (§1) Herbicidal activity of herbicide compositions according to the first aspect of the present invention with regard to different types of unwanted vegetation was determined during trials performed on test fields (field trials). Individual compositions comprising pyridate and individual compositions comprising a defined 4-HPPD inhibitor are compared with a herbicide composition according to the invention comprising both pyridate and a defined 4-HPPD inhibitor. The expected activity of the combination of the active compounds pyridate and a defined 4-HPPD inhibitor is calculated according to above mentioned calculation method by Colby, in order to evaluate a synergistic effect between pyridate and a defined 4-HPPD inhibitor.
(§2) Herbicidal activity was determined by applying herbicide compositions on emerged unwanted vegetation on fields where maize was cultivated. Pyridate and a defined 4-HPPD inhibitor were applied as a tank mixture by mixing these active compounds prior to use in a spray tank. The corresponding mixture was in the form of a spray liquor. […] At a specified number of days after application (DAA), the degree of damage to the unwanted vegetation is rated in % of plants of unwanted vegetation that were killed, which was assessed by visually controlling the plants.

[2] = system: Brassica napus (winter); assay: Field trial post-emergence in maize: BRSNW; conditions: # = 1, g a.c./ha: PYR 300, MES 100, PYR + MES 300 + 90
Experimental: as §1
(§3) Herbicidal activity was determined by applying herbicide compositions on emerged unwanted vegetation on fields where maize was cultivated. Pyridate and a defined 4-HPPD inhibitor were applied as a tank mixture by mixing these active compounds prior to use in a spray tank. The corresponding mixture was in the form of a spray liquor. Besides, spray liquors of individual compositions comprising pyridate and of individual compositions comprising a defined 4-HPPD inhibitor were used. Test plants of unwanted vegetation with a growth stage corresponding to BBCH 10-18 (according to the extended BBCH-scale) were sprayed with the active compound preparations such that particular desired amounts of active compounds are applied per unit area. Spray liquor was diluted with water to arrive at an application volume of 50 to 450 L/ha. At a specified number of days after application (DAA), the degree of damage to the unwanted vegetation is rated in % of plants of unwanted vegetation that were killed, which was assessed by visually controlling the plants.

[3] = system: Digitaria sanguinalis; assay: Field trial post-emergence in maize: DIGSA; conditions: g a.c./ha: PYR 300, MES 100, PYR + MES 300 + 90
Experimental: as §1, §3

[4] = system: Papaver rhoeas; assay: Field trial post-emergence in maize: PAPRH; conditions: # = 1, g a.c./ha: PYR 300, MES 100, PYR + MES 300 + 90
Experimental: as §1, §3

[5] = system: Fallopia convolvulus; assay: Field trial post-emergence in maize: POLCO
Experimental: as §1, §3

[6] = system: Portulaca oleracea; assay: Field trial post-emergence in maize: POROL; conditions: # = 1, g a.c./ha: PYR 300, MES 100, PYR + MES 300 + 90
Experimental: as §1, §3

[7] = system: Stellaria media; assay: Field trial post-emergence in maize: STEME
Experimental: as §1, §3

[8] = system: Chenopodium album; assay: Field trial post-emergence in maize: CHEAL; conditions: 13-14 DAA, # = 1
Experimental: as §1, §3

[9] = system: Sinapis arvensis; assay: Field trial post-emergence in maize: SINAR; conditions: 13-14 DAA; # = 1; g a.c./ha: PYR 450, TOP 12.4, PYR + TOP 450 + 12.4
Experimental: as §1, §2

[10] = system: Bassia scoparia; assay: Field trial post-emergence in maize: KCHSC; conditions: 13-14 DAA; # = 2; g a.c./ha: PYR 450, TEM 38, PYR + TEM 450 + 38
Experimental: as §1, §2

[11] = system: Solanum nigrum; assay: Examples 6-8 herbicidal effect: SOLNI; conditions: 7 DAA
[12] = system: Echinochloa crus-galli; assay: Examples 6-8 herbicidal effect: ECHCG; conditions: 7 DAA
[13] = system: Poa annua; assay: Examples 6-8 herbicidal effect: POAAN; conditions: 7 DAA
[14] = system: Lamium amplexicaule; assay: Example 6 herbicidal effect: LAMAM; conditions: 7 DAA
[15] = system: unwanted vegetation (UVEG); assay: Field trials Examples 1-5 (incl. Table 1), post-emergence on unwanted vegetation in maize; conditions: 14-20 DAA
Experimental: as §1, §3

[16] = system: Lamium purpureum; assay: Field trial post-emergence in maize: LAMPU
Experimental: as §1, §3
(§4) Example 1 concerns a herbicide composition comprising a combination of pyridate and mesotrione, which was applied post-emergence on unwanted vegetation on a field where maize was cultivated, according to the test conditions mentioned above.

[17] = system: Matricaria chamomilla; assay: Field trial post-emergence in maize: MATCH
Experimental: as §1, §3, §4

[18] = g a.c./ha: PYR 10, TEM 22, PYR + TEM 10 + 100
[19] = g a.c./ha: PYR 300, PYR + MES 300 + 80
[20] = g a.c./ha: PYR 300, SCT 300, PYR + SCT 300 + 300
[21] = g a.c./ha: PYR 300, TEM 100, PYR + TEM 300 + 100
[22] = g a.c./ha: PYR 450, SCT 450, PYR + SCT 300 + 450
[23] = g a.c./ha: PYR 600, PYR + SCT 600 + 300
[24] = g a.c./ha: PYR 900, TEM 44, PYR + TEM 900 + 44

With `CCCCCCCCSC(=O)Oc1cc(Cl)nnc1-c1ccccc1` [PYR, (6-chloro-3-phenylpyridazin-4-yl) octylsulfanylformate] the “herbicidal effect (h.e.)” value [1] was 73%, the “herbicidal effect (h.e.)” value ([2]; 7-14 DAA) was 5% and the “herbicidal effect (h.e.)” value ([2]; 18-28 DAA) was 5%. For the same molecule, the “herbicidal effect (h.e.)” value ([3]; 7-14 DAA, # = 2) was 30%, the “herbicidal effect (h.e.)” value ([3]; 18-28 DAA, # = 2) was 24% and the “herbicidal effect (h.e.)” value ([3]; 31-48 DAA, # = 1) was 48%. The “herbicidal effect (h.e.)” value ([4]; 18-28 DAA) was 3%, the “herbicidal effect (h.e.)” value ([4]; 31-48 DAA) was 3% and the “herbicidal effect (h.e.)” value ([5]; 7-14 DAA, # = 5, g a.c./ha: PYR 300, MES 100, PYR + MES 300 + 90) was 26%. The “herbicidal effect (h.e.)” value ([5]; 13-14 DAA, # = 1, g a.c./ha: PYR 450, MES 144, PYR + MES 450 + 144) was 23%, the “herbicidal effect (h.e.)” value ([5]; 18-28 DAA, # = 8, g a.c./ha: PYR 300, MES 100, PYR + MES 300 + 90) was 32% and the “herbicidal effect (h.e.)” value ([5]; 31-48 DAA, # = 8, g a.c./ha: PYR 300, MES 100, PYR + MES 300 + 90) was 27%. It also gave a PYR h.e. ([5]; POLCO 14-20 DAA 300 g a.c./ha) of 31%, a PYR h.e. ([5]; POLCO 14-20 DAA 600 g a.c./ha) of 34% and a PYR h.e. ([5]; POLCO 14-20 DAA 900 g a.c./ha) of 47%. It also gave a PYR h.e. ([5]; POLCO 24-31 DAA 300 g a.c./ha) of 29%, a PYR h.e. ([5]; POLCO 24-31 DAA 600 g a.c./ha) of 29% and a PYR h.e. ([5]; POLCO 24-31 DAA 900 g a.c./ha) of 43%. The “herbicidal effect (h.e.)” value ([6]; 7-14 DAA) was 30%, the “herbicidal effect (h.e.)” value ([6]; 18-28 DAA) was 11% and the “herbicidal effect (h.e.)” value ([7]; 18-28 DAA, # = 4, g a.c./ha: PYR 300, MES 100, PYR + MES 300 + 90) was 35%. It also gave a PYR h.e. ([7]; STEME 14-20 DAA 300 g a.c./ha) of 18%, a PYR h.e. ([7]; STEME 14-20 DAA 600 g a.c./ha) of 42% and a PYR h.e. ([7]; STEME 14-20 DAA 900 g a.c./ha) of 55%. For the same molecule, the PYR h.e. ([7]; STEME 24-31 DAA 300 g a.c./ha) was 16%, the PYR h.e. ([7]; STEME 24-31 DAA 600 g a.c./ha) was 30% and the PYR h.e. ([7]; STEME 24-31 DAA 900 g a.c./ha) was 50%. For the same molecule, the “herbicidal effect (h.e.)” value ([8]; g a.c./ha: PYR 450, TEM 38, PYR + TEM 450 + 38) was 49%, the “herbicidal effect (h.e.)” value ([8]; g a.c./ha: PYR 450, TOP 12.4, PYR + TOP 450 + 12.4) was 35% and the “herbicidal effect (h.e.)” value [9] was 57%. The “herbicidal effect (h.e.)” value [10] was 66%, the “herbicidal effect (h.e.)” value [11, 18] was 0% and the “herbicidal effect (h.e.)” value [11, 19] was 11%. For the same molecule, the “herbicidal effect (h.e.)” value [11, 20] was 10%, the “herbicidal effect (h.e.)” value [11, 21] was 10% and the “herbicidal effect (h.e.)” value [11, 22] was 10%. The “herbicidal effect (h.e.)” value [11, 23] was 28%, the “herbicidal effect (h.e.)” value [11, 24] was 100% and the “herbicidal effect (h.e.)” value [12, 18] was 0%. The “herbicidal effect (h.e.)” value [12, 19] was 0%, the “herbicidal effect (h.e.)” value [12, 20] was 0% and the “herbicidal effect (h.e.)” value [12, 21] was 0%. The “herbicidal effect (h.e.)” value [12, 22] was 0%, the “herbicidal effect (h.e.)” value [12, 23] was 0% and the “herbicidal effect (h.e.)” value [12, 24] was 5%. The “herbicidal effect (h.e.)” value [13, 18] was 0%, the “herbicidal effect (h.e.)” value [13, 19] was 3% and the “herbicidal effect (h.e.)” value [13, 20] was 2%. The “herbicidal effect (h.e.)” value [13, 21] was 10%, the “herbicidal effect (h.e.)” value [13, 22] was 2% and the “herbicidal effect (h.e.)” value [13, 23] was 0%. The “herbicidal effect (h.e.)” value [13, 24] was 0%, the “herbicidal effect (h.e.)” value [14, 18] was 0% and the “herbicidal effect (h.e.)” value [14, 21] was 5%. For the same molecule, the “herbicidal effect (h.e.)” value [14, 24] was 10%, the “PYR h.e. (%)” value ([15]; VIOAR (Viola arvensis), # = 3, first VIOAR block (r259-264), PYR 900 g a.c./ha) was 50% and the “PYR h.e. (%)” value ([15]; VIOAR (Viola arvensis), # = 3, second VIOAR block (r265-272), PYR 300 g a.c./ha) was 27%. For the same molecule, the “PYR h.e. (%)” value ([15]; VIOAR, # = 3, second VIOAR block (r265-272), PYR 600 g a.c./ha) was 34%, the “PYR h.e. (%)” value ([15]; VIOAR, # = 3, second VIOAR block (r265-272), PYR 900 g a.c./ha) was 47% and the PYR h.e. ([16]; LAMPU 14-20 DAA 300 g a.c./ha) was 28%. For the same molecule, the PYR h.e. ([16]; LAMPU 14-20 DAA 600 g a.c./ha) was 60%, the PYR h.e. ([16]; LAMPU 14-20 DAA 900 g a.c./ha) was 65% and the PYR h.e. ([16]; LAMPU 24-31 DAA 300 g a.c./ha) was 14%. For the same molecule, the PYR h.e. ([16]; LAMPU 24-31 DAA 600 g a.c./ha) was 46%, the PYR h.e. ([16]; LAMPU 24-31 DAA 900 g a.c./ha) was 67% and the PYR h.e. ([17]; MATCH 14-20 DAA 300 g a.c./ha) was 25%. The PYR h.e. ([17]; MATCH 14-20 DAA 600 g a.c./ha) was 45%, the PYR h.e. ([17]; MATCH 14-20 DAA 900 g a.c./ha) was 61% and the PYR h.e. ([17]; MATCH 24-31 DAA 300 g a.c./ha) was 5%. For the same molecule, the PYR h.e. ([17]; MATCH 24-31 DAA 600 g a.c./ha) was 26% and the PYR h.e. ([17]; MATCH 24-31 DAA 900 g a.c./ha) was 39%.
